Source: patent US10030025B2, “Substituted [1,2,4]triazolo[4,3-a]pyrazines as selective NK-3 receptor antagonists” (EUROSCREEN SA, priority 2013, dated 2018)

Columns and labels:
[1] = test system: circulating levels of luteinizing hormone (LH); assay: Castrated male rat model, circulating luteinizing hormone (LH); type: in vivo; conditions: castrated male SD rats, single oral dose less than or equal to 30 mg/kg, p<0.05
Protocol: Castrated male rat model to assess the effect of compound of invention on circulating levels of luteinizing hormone (LH)
The effect of compounds of the invention to inhibit luteinizing hormone (LH) secretion is determined by the following biological studies.
In humans and rodents, castration is well-precedented to permit heightened, persistent GnRH signaling and consequent elevation of circulating LH. Thus, a castrated rat model is used to provide a broad index for measurement of LH inhibition as a marker of test compound inhibition of the GnRH signaling pathway.
Castrated adult male Sprague-Dawley (SD) rats (150-175 g) were purchased from Janvier (St Berthevin, France). All animals were housed 2 per cage in a temperature-controlled room (22±2° C.) and 50±5% relative humidity with a 12 hour/12 hour light/dark cycles (lights off at 6h00 pm). The animals were allowed 3 weeks of postoperative recovery prior to study. Animals were handled on a daily basis. Standard diet and tap water were provided ad libitum. Animal cage litters were changed once a week. On the study day, animals were acclimated to the procedure room for a period of one hour prior to the initiation of the experiment.
Compounds of the invention were formulated in 0.5% methyl cellulose.
After basal sampling (T0) a single dose of compounds of the invention or vehicle was administrated orally to rats. Blood samples were then collected at several time points post dosing (45, 90, 150, 300 and 420 minutes). Blood samples were obtained via tail vein bleed, drawn into EDTA-containing tubes and centrifuged immediately. Plasma samples were collected and stored in a −80° C. freezer until assayed. Serum LH levels were determined using radioimmunoassay kit from RIAZEN—Rat LH, Zentech (Liège, Belgium). Baseline was defined as the initial basal blood sample.

plasma testosterone = assay: Plasma testosterone in gonad intact male rats; type: in vivo, rat; conditions: gonad intact male SD rats, 3 mg/kg single oral administration, vs vehicle, over the test period
Protocol: The study was designed to evaluate the effect of compounds of the invention on testosterone circulating levels following oral administration at 3 mg/kg on SD gonad intact male rats.
Two groups of non-fasted rats (male, Sprague-Dawley, 200 to 225 g; n=4 rats/group) with jugular vein cannulation, were dosed via a single oral administration of compounds of the invention at 3 mg/kg. The control group was dosed with the vehicle. Compounds of the invention were prepared in a dose formulation of pyrogen-free water with 0.5% methylcellulose. Blood samples were collected via the catheter implanted in the jugular vein at pre-determined intervals using EDTA-3K as anti-coagulant. Samples were chilled and rapidly processed by centrifugation to obtain corresponding plasma samples. Testosterone hormone levels were determined by RIA performed on plasma samples collected for all the groups at 5 minutes before administration (basal time), and at 45, 90, 150, 300, 480 minutes and 24 hours after dosing.

body temperature = assay: Thermoregulation in ovariectomized (OVX) ewes; type: in vivo, ewe; conditions: 1 mg/kg intravenous bolus
Description: After 4 months recovery, animals were acclimatised to housing in single pens for a period of 7 days with ad libitum access to water and […] lucerne hay. One day prior to experimentation, the animals received a jugular vein cannula ([…], Tuta Laboratories, Lane Cove, Australia). The cannulae were kept patent with heparinised saline. On the day of the experiment, compound no 5 of the present invention was formulated in physiological saline with 9% 2-hydroxypropyl-β-cyclodextrin at a concentration of 2 mg/mL. Compound no 5 (1 mg/kg, N=5) or vehicle (N=5) was administered at 11h00 by intravenous bolus injection at a dose volume of 0.5 mL/kg through the jugular cannula and the injected material was flushed into the animal with 5 mL of heparinised saline. Animals were fed at 12h00. Rectal temperatures were monitored with a probe at hourly intervals throughout the experiment, starting at 7h40 and concluding at 15h40. […] However, this pyrogenic response to feeding in ovarectomized ewes was not observed in any animals treated with compound no 5. […] Graphical data presented as mean±SEM for vehicle-treated versus compound no 5-treated ewes (N=5/group). Statistical analyses performed by 2-way ANOVA followed by Sidak's Multiple Comparisons Test between treatment groups at the indicated time interval, *p<0.05.

plasma estradiol levels = assay: Estradiol circulating level in female rats; type: in vivo, rat; conditions: adult female rats, 10 mg/kg b.i.d. oral, 10 days, two consecutive estrous cycles
Protocol: The aim of this study was to evaluate the effect of compounds of the invention on plasma estradiol levels following oral administration at 10 mg/kg (b.i.d.) for a period of 10 days in female rats.
Two groups of adult, female rats (Sprague-Dawley, ˜320 g) were treated in-phase with their individual estrous cycles. Thus, treatment was started in the proestrus phase (coincident with peak estradiol levels, as shown on Day 1 in FIG. 3) and rats were dosed twice daily (˜9h30 and 17h30) by oral administration either with a compound of the invention at 10 mg/kg or with the vehicle for the control group. Compounds of the invention were prepared in a dose formulation of pyrogen-free water with 0.5% methylcellulose. Estradiol levels were determined for all groups by ELISA performed on plasma samples derived from blood collections taken at 30 minutes before the daily, 9h30 test article administration on all days presented in FIG. 3.

## Cc1nsc(-c2nnc3n2CCN(C(=O)c2ccc(F)c(F)c2)[C@@H]3C)n1 [Compound 9, (R)-(3,4-difluorophenyl)(8-methyl-3-(3-methyl-1,2,4-thiadiazol-5-yl)-5,6-dihydro-[1,2,4]triazolo[4,3-a]pyrazin-7(8H)-yl)methanone]
[1]
  Effect on circulating LH levels: significantly suppressed circulating LH levels

## CCc1noc(-c2nnc3n2CCN(C(=O)c2ccc(-c4cccs4)cc2)[C@@H]3C)n1 [Compound 30, (R)-(3-(3-ethyl-1,2,4-oxadiazol-5-yl)-8-methyl-5,6-dihydro-[1,2,4]triazolo[4,3-a]pyrazin-7(8H)-yl)(4-(thiophen-2-yl)phenyl)methanone]
[1]
  Effect on circulating LH levels: significantly suppressed circulating LH levels

## Cc1nsc(-c2nnc3n2CCN(C(=O)c2ccc(Cl)c(F)c2)[C@@H]3C)n1 [Compound 4, (R)-(4-chloro-3-fluorophenyl)(8-methyl-3-(3-methyl-1,2,4-thiadiazol-5-yl)-5,6-dihydro-[1,2,4]triazolo[4,3-a]pyrazin-7(8H)-yl)methanone]
[1]
  Effect on circulating LH levels: significantly suppressed circulating LH levels

## Cc1nsc(-c2nnc3n2CCN(C(=O)c2ccc(F)c(F)c2F)[C@@H]3C)n1 [Compound 8, (R)-(8-methyl-3-(3-methyl-1,2,4-thiadiazol-5-yl)-5,6-dihydro-[1,2,4]triazolo[4,3-a]pyrazin-7(8H)-yl)(2,3,4-trifluorophenyl)methanone]
[1]
  Effect on circulating LH levels: significantly suppressed circulating LH levels

## CCc1nsc(-c2nnc3n2CCN(C(=O)c2ccc(F)cc2)[C@@H]3C)n1 [Compound 2, (R)-(3-(3-ethyl-1,2,4-thiadiazol-5-yl)-8-methyl-5,6-dihydro-[1,2,4]triazolo[4,3-a]pyrazin-7(8H)-yl)(4-fluorophenyl)methanone]
[1]
  Effect on circulating LH levels: significantly suppressed circulating LH levels

## Cc1nsc(-c2nnc3n2CCN(C(=O)c2ccc(Cl)c(Cl)c2)[C@@H]3C)n1 [Compound 1, (R)-(3,4-dichlorophenyl)(8-methyl-3-(3-methyl-1,2,4-thiadiazol-5-yl)-5,6-dihydro-[1,2,4]triazolo[4,3-a]pyrazin-7(8H)-yl)methanone]
[1]
  Effect on circulating LH levels: significantly suppressed circulating LH levels

## CCc1noc(-c2nnc3n2CCN(C(=O)c2ccc(F)cc2)[C@@H]3C)n1 [Compound 13, (R)-(3-(3-ethyl-1,2,4-oxadiazol-5-yl)-8-methyl-5,6-dihydro-[1,2,4]triazolo[4,3-a]pyrazin-7(8H)-yl)(4-fluorophenyl)methanone]
[1]
  Effect on circulating LH levels: significantly suppressed circulating LH levels

## Cc1nsc(-c2nnc3n2CCN(C(=O)c2ccc(F)cc2)[C@@H]3C)n1 [Compound 5, (R)-(4-fluorophenyl)(8-methyl-3-(3-methyl-1,2,4-thiadiazol-5-yl)-5,6-dihydro-[1,2,4]triazolo[4,3-a]pyrazin-7(8H)-yl)methanone]
[1]
  Effect on circulating LH levels: significantly suppressed circulating LH levels
Plasma testosterone
  Effect on plasma testosterone level: significantly suppressed plasma testosterone level
Body temperature
  Pyrogenic response to feeding: not observed
Plasma estradiol levels
  Effect on estradiol levels: significantly decreased estradiol levels

## Cc1nsc(-c2nnc3n2CCN(C(=O)c2ccccc2)[C@@H]3C)n1 [Compound 20, (R)-(8-methyl-3-(3-methyl-1,2,4-thiadiazol-5-yl)-5,6-dihydro-[1,2,4]triazolo[4,3-a]pyrazin-7(8H)-yl)(phenyl)methanone]
[1]
  Effect on circulating LH levels: significantly suppressed circulating LH levels
